Results on 34 compounds are retold here after US20220372031A1, “NOVEL TRICYCLIC AROMATIC HETEROCYCLIC COMPOUND, PREPARATION METHOD THEREFOR, PHARMACEUTICAL COMPOSITION AND APPLICATION THEREOF” (SHANGHAI LONGWOOD BIOPHARMACEUTICALS CO., LTD., priority 2019, published 2022).

This test addresses T1, PD-1/PD-L1 (Homo sapiens, UniProt Q9NZQ7).
T1 construct: Recombinant human PD-L1 protein (19-238) with a His-tagged at the C-terminus; purchased AcroBiosystems PD1-H5229 (PD-L1); PD1-H5257 (PD-1)
The test can be described thus: PD-1/PD-L1 homogeneous time-resolved fluorescence (HTRF) binding assay. The following applies: PD-1/PD-L1 HTRF binding, ~3 nM PD1, 10 nM PD-L1, 25° C., PBS pH 7.4. As to the method: Assays were performed in standard black 384-well polystyrene plates and a final volume was 20 μL. The inhibitor was first serially diluted with DMSO and added to the wells of the plate, followed by the addition of other reaction components. The final concentration of DMSO in the assay was 1%. Assays were performed at 25° C. in PBS buffer (pH 7.4) containing 0.05% Tween-20 and 0.1% BSA. Recombinant human PD-L1 protein (19-238) with a His-tagged at the C-terminus was purchased from AcroBiosystems (PD1-H5229). Recombinant human PD-1 protein (25-167) with an Fc tag at the C-terminus was also purchased from AcroBiosystems (PD1-H5257). The PD-L1 and PD-1 proteins were diluted in assay buffer and then […] of the solution was extracted and added to the wells of the plate. Plates were centrifuged and proteins and inhibitors were preincubated for 40 minutes. After incubation, 0.1 μl of HTRF detection buffer containing europium […] labeled anti-human IgG (PerkinElmer-AD0212), Fc-specific and anti-His SureLight®-Allophycocyanin (APC, PerkinElmer-AD0059H) conjugated antibodies was added. After centrifugation, the plates were incubated at 25° C. for 60 minutes. Data was read in a PHERAstar FS plate reader (665 nm/620 nm ratio). Final concentrations in the assay were ˜3 nM PD1, 10 nM PD-L1, 1 nM europium anti-human IgG, and 20 nM anti-His-allophycocyanin. Activity data were fitted using GraphPad Prism 5_0 software to derive IC50 values for inhibitors.

T1 sequence (Q9NZQ7 19-238): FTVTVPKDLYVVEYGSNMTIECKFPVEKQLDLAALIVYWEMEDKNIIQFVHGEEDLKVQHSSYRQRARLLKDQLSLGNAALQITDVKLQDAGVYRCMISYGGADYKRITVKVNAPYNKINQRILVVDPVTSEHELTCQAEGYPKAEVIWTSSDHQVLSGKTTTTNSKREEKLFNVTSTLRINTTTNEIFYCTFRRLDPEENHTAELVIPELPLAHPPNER

As a reminder, the IC50 is the point on the concentration scale where inhibition reaches its midpoint. A high value points to a need for much substance. Turning to `Cc1c(Nc2nccc3cc(CN4CC[C@@H](O)C4)cnc23)cccc1-c1cccc(-c2cc3cc4c(c([N+](=O)[O-])c3o2)CCCC4N2CC(C(=O)O)C2)c1C` (stereo partly shown) [Compound 001], the IC50 was no more than 10 nM.
Next, `Cc1c(Nc2nccc3cc(CN4CC[C@@H](O)C4)cnc23)cccc1-c1cccc(-c2cc3cc4c(c(C#N)c3o2)CCCC4N2CC(C(=O)O)C2)c1C` (stereo partly shown) [Compound 002]: no more than 10 nM; `COc1nc(-c2cccc(-c3cccc(-c4cc5cc6c(c(C#N)c5o4)CCC6N4CC[C@@H](C(=O)O)C4)c3C)c2C)cnc1CN1CC[C@@H](O)C1` (stereo partly shown) [Compound 003]: no more than 10 nM.
Next, `Cc1c(Nc2nccc3cc(CN4CC[C@@H](O)C4)cnc23)cccc1-c1cccc(-c2nc3cc4c(c(C#N)c3o2)CCC4N2CC[C@@H](C(=O)O)C2)c1C` (stereo partly shown) [Compound 004]: no more than 10 nM; `N#Cc1c2c(cc3nc(-c4cccc(-c5cccc(Nc6nccc7cc(CN8CC[C@@H](O)C8)cnc67)c5Cl)c4Cl)oc13)C(N1CC[C@@H](C(=O)O)C1)CC2` (stereo partly shown) [Compound 005]: no more than 10 nM; `Cc1c(Nc2nccc3cc(CN4CC[C@@H](O)C4)cnc23)cccc1-c1cccc(-c2nc3cc4c(c(C#N)c3o2)CC[C@@H]4N2CC[C@@H](C(=O)O)C2)c1C` [Compound 006]: no more than 10 nM.
Next, `Cc1c(Nc2nccc3cc(CN4CC[C@@H](O)C4)cnc23)cccc1-c1cccc(-c2nc3cc4c(c(C#N)c3o2)CC[C@H]4N2CC[C@@H](C(=O)O)C2)c1C` [Compound 007]: no more than 10 nM; `COc1nc(-c2cccc(-c3cccc(-c4nc5cc6c(c(C#N)c5o4)CCC6N4CC[C@@H](C(=O)O)C4)c3C)c2C)ccc1CN1CC[C@@H](O)C1` (stereo partly shown) [Compound 008]: no more than 10 nM.
Turning to `Cc1c(Nc2nccc3cc(CN4CC[C@@H](O)C4)cnc23)cccc1-c1cccc(-c2nc3cc4c(c(C#N)c3o2)CCC4N2CC[C@@H](C(=O)NS(=O)(=O)C3CC3)C2)c1C` (stereo partly shown) [Compound 009], the IC50 was no more than 10 nM.
With `Cc1c(Nc2nccc3cc(CN4CC[C@@H](O)C4)cnc23)cccc1-c1cccc(-c2nc3cc4c(c(C#N)c3o2)CCC4N2CC[C@@H](C(N)=O)C2)c1C` (stereo partly shown) [Compound 010] the figure was no more than 10 nM; with `N#Cc1c2c(cc3nc(-c4cccc(-c5cccc(Nc6nccc7cc(CN8CC[C@@H](O)C8)cnc67)c5Cl)c4Cl)oc13)[C@@H](NCCC(=O)O)CC2` [Compound 011], no more than 10 nM; with `N#Cc1c2c(cc3nc(-c4cccc(-c5cccc(Nc6nccc7cc(CN8CC[C@@H](O)C8)cnc67)c5Cl)c4Cl)oc13)[C@@H](NCC(=O)O)CC2` [Compound 012], no more than 10 nM.
With `CN(CC(=O)O)[C@H]1CCc2c1cc1nc(-c3cccc(-c4cccc(Nc5nccc6cc(CN7CC[C@@H](O)C7)cnc56)c4Cl)c3Cl)oc1c2C#N` [Compound 013] the figure was no more than 10 nM; with `Cc1c(Nc2nc(N)nc3cc(CN4CC[C@@H](O)C4)cnc23)cccc1-c1cccc(-c2nc3cc4c(c(C#N)c3o2)CC[C@H]4N2CC[C@@H](C(=O)O)C2)c1C` [Compound 015], no more than 10 nM.
With `Cc1c(Nc2nc(C(F)F)nc3cc(CN4CC[C@@H](O)C4)cnc23)cccc1-c1cccc(-c2nc3cc4c(c(C#N)c3o2)CC[C@H]4N2CC[C@@H](C(=O)O)C2)c1C` [Compound 016] the figure was no more than 10 nM; with `Cc1c(Nc2nccc3cc(CN4CC[C@@H](O)C4)cnc23)cccc1-c1cccc(-c2cc3cc4c(c(C#N)c3o2)CCCC4N2CC[C@@H](C(=O)O)C2)c1C` (stereo partly shown) [Compound 017], no more than 10 nM; with `Cc1c(Nc2nccc3cc(CN4CC[C@@H](O)C4)cnc23)cccc1-c1cccc(-c2cc3cc4c(c(C#N)c3o2)CCC4N2CC[C@@H](C(=O)O)C2)c1C` (stereo partly shown) [Compound 018], no more than 10 nM.
Compound `Cc1c(Nc2nccc3cc(CN4CC[C@@H](O)C4)cnc23)cccc1-c1cccc(-c2cc3cc4c(c(C#N)c3o2)CCCC4N2CC[C@@H](O)C2)c1C` (stereo partly shown) [Compound 019] had an IC50 of no more than 10 nM.
Next, `Cc1c(Nc2nccc3cc(CN4CC[C@@H](O)C4)cnc23)cccc1-c1cccc(-c2cc3cc4c(c(C#N)c3o2)CCC4N2CC[C@@H](O)C2)c1C` (stereo partly shown) [Compound 020]: no more than 10 nM.
Compound `N#Cc1c2c(cc3cc(-c4cccc(-c5cccc(Nc6nccc7cc(CN8CC[C@@H](O)C8)cnc67)c5Cl)c4Cl)oc13)C(N1CC[C@@H](C(=O)O)C1)CC2` (stereo partly shown) [Compound 021] gave an IC50 of no more than 10 nM.
Next, `Cc1c(Nc2nccc3cc(CN4CC[C@@H](O)C4)cnc23)cccc1-c1cccc(-c2cc3cc4c(c(C#N)c3o2)CC[C@@H]4N)c1C` [Compound 022]: no more than 10 nM.
With `Cc1c(Nc2nccc3cc(CN4CC[C@@H](O)C4)cnc23)cccc1-c1cccc(-c2cc3cc4c(c(C#N)c3o2)CCCC4NCCO)c1C` (stereo partly shown) [Compound 023] the figure was no more than 10 nM.
Next, `Cc1c(Nc2nccc3cc(CN4CC[C@@H](O)C4)cnc23)cccc1-c1cccc(-c2nc3cc4c(c(C#N)c3o2)CCC4N2CC[C@@H](C(=O)O)C2)c1Cl` (stereo partly shown) [Compound 026]: no more than 10 nM.
With `Cc1c(-c2nc3cc4c(c(C#N)c3o2)CCC4N2CC[C@@H](C(=O)O)C2)cccc1-c1cccc(Nc2nccc3cc(CN4CC[C@@H](O)C4)cnc23)c1Cl` (stereo partly shown) [Compound 027], the IC50 was no more than 10 nM.
Compound `Cc1c(Nc2nccc3cc(CN4CC[C@@H](O)C4)cnc23)cccc1-c1cccc(-c2nc3cc4c(c(C#N)c3o2)CCC4NCCC(=O)O)c1C` (stereo partly shown) [Compound 028] came in with an IC50 of no more than 10 nM.
Compound `N#Cc1c2c(cc3nc(-c4cccc(-c5cccc(Nc6nccc7cc(CN8CC[C@@H](O)C8)cnc67)c5Cl)c4Cl)oc13)[C@@H](N1CC[C@@H](C(=O)O)C1)CC2` [Compound 029] gave an IC50 of no more than 10 nM.
`N#Cc1c2c(cc3nc(-c4cccc(-c5cccc(Nc6nccc7cc(CN8CC[C@@H](O)C8)cnc67)c5Cl)c4Cl)oc13)[C@H](N1CC[C@@H](C(=O)O)C1)CC2` [Compound 030] came in with an IC50 of no more than 10 nM.
`N#Cc1c2c(cc3nc(-c4cccc(-c5cccc(Nc6nccc7cc(CN8CC[C@@H](O)C8)cnc67)c5Cl)c4Cl)oc13)[C@H](NCCC(=O)O)CC2` [Compound 031] returned an IC50 of no more than 10 nM.
The compound `Cc1c(Nc2nccc3cc(CN4CC[C@@H](O)C4)cnc23)cccc1-c1cccc(-c2nc3cc4c(c(C#N)c3o2)CC[C@H]4N2CC[C@@H](C(=O)NS(=O)(=O)C3CC3)C2)c1C` [Compound 032] came in with an IC50 of no more than 10 nM.
Next, `COc1nc(-c2cccc(-c3cccc(-c4nc5cc6c(c(C#N)c5o4)CC[C@H]6N4CC[C@@H](C(=O)NS(=O)(=O)C5CC5)C4)c3C)c2C)ccc1CN1CC[C@@H](O)C1` [Compound 034]: no more than 10 nM; `COc1nc(-c2cccc(-c3cccc(-c4nc5cc6c(c(C#N)c5o4)CC[C@H]6N4CC[C@@H](C(=O)NS(=O)(=O)C5CC5)C4)c3Cl)c2Cl)ccc1CN1CC[C@@H](O)C1` [Compound 035]: no more than 10 nM.
In turn, `COc1nc(-c2cccc(-c3cccc(-c4nc5cc6c(c(C#N)c5o4)CC[C@H]6N4CC[C@@H](C(=O)NS(=O)(=O)C5CC5)C4)c3C)c2C)cnc1CN1CC[C@@H](O)C1` [Compound 036] came in with an IC50 of no more than 10 nM.
With `COc1nc(-c2cccc(-c3cccc(-c4nc5cc6c(c(C#N)c5o4)CC[C@H]6N4CC[C@@H](C(=O)NS(=O)(=O)C5CC5)C4)c3Cl)c2Cl)cnc1CN1CC[C@@H](O)C1` [Compound 037] the figure was no more than 10 nM.
Next, `COc1nc(-c2cccc(-c3cccc(-c4nc5cc6c(c(C#N)c5o4)CC[C@@H]6NCCC(=O)O)c3Cl)c2Cl)cnc1CN1CC[C@@H](O)C1` [Compound 038]: no more than 10 nM.
